What all share (type): in vivo, mouse
The test system of assay [1] is Winnie mice. Put plainly: Intestinal inflammation: faecal lipocalin (Lcn)-2 ELISA. The note with it: day 14; mean±SEM, n=5. The procedure: The small molecular APE1/Ref-1 antagonist; APX3330, was administered via IP injections in Winnie mice at a dose of 25 mg/kg (30 G needle, max volume 200 μl) dissolved in Cremphore (2%) (Sigma-Aldrich): Ethanol (2%) in sterile water (96%). Mice received alternating IP injections twice a day with 12-hour intervals, over the course of two weeks during predominate intestinal inflammation. Winnie-sham treated mice received vehicle injections excluding APX3330 drugs. All mice were monitored, weighed and faecal pellets were collected over the course of treatment. Faecal lipocalin (Lcn)-2 ELISA kit (Abcam) were used to detect efficacy of APX3330 on levels of colonic inflammation. Faecal samples collected on day 14 of treatments from control C57BL/6, Winnie-Sham treated and Winnie-APX3330 treated mice were reconstituted in PBS-0.1 TWEEN 20 (100 mg/mL) to form a homogenous faecal suspension. Homogenous suspension was centrifuged for 10 minutes at 12000 RPM at 4° C. Lcn-2 were determined in the clear supernatants. All samples were repeated in duplicates for statistical value. […] Microplate reader capable of measuring absorbance at 450 nm, with the correction wavelength set at 540 nm was used to detect Lcn-2 protein (pg/mL) in faecal pellet supernatant.

For assay [2], the system named is Winnie mice. Put plainly: Superoxide production in the myenteric plexus (MitoSOX Red). The note with it: distal colon myenteric plexus; mean±SEM, n=4. The procedure: The small molecular APE1/Ref-1 antagonist; APX3330, was administered via IP injections in Winnie mice at a dose of 25 mg/kg (30 G needle, max volume 200 μl) dissolved in Cremphore (2%) (Sigma-Aldrich): Ethanol (2%) in sterile water (96%). Mice received alternating IP injections twice a day with 12-hour intervals, over the course of two weeks during predominate intestinal inflammation. Winnie-sham treated mice received vehicle injections excluding APX3330 drugs. All mice were monitored, weighed and faecal pellets were collected over the course of treatment. MITOSOX™ Red M36008 (Invitrogen, Australia), acquired mitochondrial-derived production of superoxide in the myenteric ganglia. Briefly, distal colon preparations from control C57BL/6, Winnie-sham treated and Winnie-APX3330 treated mice freshly excised to expose the myenteric plexus. Samples were incubated at 37° C. for 40 minutes with 5 μM MITOSOX™ Red M36008. Tissues were washed with oxygenated physiological saline and fixed with Zamboni's fixative for 1-hour followed by (3×10 minute) 1×PBS washes. Prepared tissues were mounted on glass slides with DAKO fluorescent a mounting medium for imaging Images were captured as previously described above. Images were converted into binary and changes in fluorescence were measured in arbitrary units (arb. Units) relative to ganglion area using ImageJ software (National Institute of Health).

Assay [3] has as its system Winnie mice. Put plainly: Clinical symptoms (body weight, rectal prolapse, faecal water content) in Winnie mice treated with APX3330. Particulars: for Daily Body Weight: mean, SEM in line below, in % (unit assumed). The text has this: In this Example, the murine model of IBD named Winnie, in which spontaneous chronic colitis results from a primary intestinal epithelial defect conferred by a mutation in the Muc2 mucin gene, was used to analyze the symptoms of IBD and the effects of treatment with APX3330. Although other models of chronic intestinal inflammation have been developed (e.g., IL-10 knockout), most of them are environment-dependent (attain inflammation only in the presence of pathogenic bacteria). Further, unlike other models, mild spontaneous inflammation in the colorectum is developed in all Winnie mice by 6 weeks of age (young adults) in pathogen-free conditions; it progresses over time and results in severe colitis by the age of 12-16 weeks. This is due to a thinner mucus layer allowing increased intestinal permeability and thus enhanced susceptibility to luminal toxins normally within the gut. In humans, Muc2 production and secretion are reduced leading to a thinner mucosal layer and increased intestinal permeability. Winnie mice (Win/Win) display symptoms of diarrhoea (not watery), ulcerations, rectal bleeding and pain at the acute stages of colitis similar to those in human IBD. The Winnie murine model of chronic colitis (12 w.o.; 15-35 g; n=24) were attained from Victoria University Werribee Animal Facility (Melbourne, Australia) to determine the effectiveness of APX3330 on mechanisms of oxidative stress. Treated Winnie mice were paralleled to a control C57BL/6 group (12 w.o.; 20-30 g; n=12) inclusive of female and male mice. All mice were acclimatized for 3 days prior to receiving in vivo intraperitoneal (IP) injections. All mice were housed at Western Centre for Health, Research and Education (WCHRE, Melbourne, Victoria, Australia) in a temperature-controlled environment with a 12-hour day/night cycle. All animals had free access to food and water with […] efforts made to minimize any suffering. All experimental procedures in this Example were conducted in agreement to the Australian National Health and Medical Research Council (NHMRC) guidelines and approved by Victorian University Animal Experimentation Ethic Committee (AEEC) under animal ethics AEETH 13/001 and AEC 17/016. The small molecular APE1/Ref-1 antagonist; APX3330, was administered via IP injections in Winnie mice at a dose of 25 mg/kg (30 G needle, max volume 200 μl) dissolved in Cremphore (2%) (Sigma-Aldrich): Ethanol (2%) in sterile water (96%). Mice received alternating IP injections twice a day with 12-hour intervals, over the course of two weeks during predominate intestinal inflammation. Winnie-sham treated mice received vehicle injections excluding APX3330 drugs. All mice were monitored, weighed and faecal pellets were collected over the course of treatment.

Regarding `CCCCCCCCCC(=CC1=C(C)C(=O)C(OC)=C(OC)C1=O)C(=O)O` [APX3330], in assay [1], the Lcn-2 faecal level came to 36 ± 2.0 pg/mL. Besides, the “MitoSOX fluorescence (superoxide production) relative to ganglion area” value in assay [2] was 19.2±7.5%. In addition, the “Daily Body Weight” value came to 102 in assay [3] (Day 1, relative to initial weight, 25 mg/kg IP twice a day); 100 in assay [3] (Day 2, relative to initial weight, 25 mg/kg IP twice a day); 101 in assay [3] (Day 3, relative to initial weight, 25 mg/kg IP twice a day); 101 in assay [3] (Day 4, relative to initial weight, 25 mg/kg IP twice a day); 100 in assay [3] (Day 5, relative to initial weight, 25 mg/kg IP twice a day); 100 in assay [3] (Day 6, relative to initial weight, 25 mg/kg IP twice a day). Further, the “Daily Body Weight” value in assay [3] (Day 7, relative to initial weight, 25 mg/kg IP twice a day) stood at 98; in assay [3] (Day 8, relative to initial weight, 25 mg/kg IP twice a day) it was 98; in assay [3] (Day 9, relative to initial weight, 25 mg/kg IP twice a day) it was 98; in assay [3] (Day 10, relative to initial weight, 25 mg/kg IP twice a day), 99; in assay [3] (Day 11, relative to initial weight, 25 mg/kg IP twice a day), 99; in assay [3] (Day 12, relative to initial weight, 25 mg/kg IP twice a day), 99. Also, in assay [3] (Day 13, relative to initial weight, 25 mg/kg IP twice a day), the “Daily Body Weight” value is recorded as 99. Moreover, the “rectal prolapse, edema and bleeding” value in assay [3] (by day 14 of treatments, 25 mg/kg IP twice a day) is “reduced”. Further, in assay [3] (day 14, 25 mg/kg IP twice a day, mean±SEM, n=7), the faecal water content is given as 73.2±2.1%.

These data come from patent US20220062205A1, “TREATMENT OF GASTROINTESTINAL DISORDERS AND SYMPTOMS THEREOF” (Indiana University Research and Technology Corporation, priority 2018, published 2022).
